One data set has as its system 3′-UTR of eIF4E3. Put plainly: Dual luciferase 3′-UTR reporter assay (eIF4E3). It counts as cell-based. To be noted: miR-584-5p mimic in comparison with scrambled. As to the method:
Dual luciferase assay. Wild-type or mutant 3′-UTR segments of the eIF4E3 and HDAC1 gene were cloned downstream of the luciferase gene in pGL3-promoter vector at the SacI and SpeI restriction sites. HEK293 cells were cotransfected with Renilla luciferase vector (pRLnull 380) and firefly luciferase vector containing pGL3-wt-eIF4E3; pGL3-mut-eIF4E3; or pGL3-wt-HDAC1, pGL3-mut-HDAC1, or pGL3 overnight and incubated in fresh complete medium for an additional 48 hours after transfection. Cells were then transfected with miRNA mimic (Invitrogen) for 24 hours. Next, cells were harvested with 1× passive lysis buffer (Promega) and luciferase activity was read using GLOMAX 20/20 luminometer (Promega).
Data are z-transformed. The cutoff criteria for each gene are fold change >2, sample intensity >10, and p-value <0.05. […] To validate the gene expression analysis and target prediction results, it was determined whether miR-584-5p reduced HDAC1/eIF4E3 expression by binding to their 3′-untranslated regions (3′-UTRs). […] Also shown are the portion of the miR-584-5p sequence (SEQ ID NO: 15; UAUGGUU) that binds to the wild-type 3′UTR and seed sequence mutant (SEQ ID NO: 16; […], top panel; and SEQ ID NO: 17; […]; bottom panel). Also shown is miR-584-5p seed sequence mutated sequences. […] The p-values were calculated using standard Student t-tests. […] The p-values were calculated using standard Student t-tests.

The next data set deals with MB cells. Put plainly: Cell viability, proliferation, clonogenic and transwell migration assays. Type of data set: cell-based. How it is done:
Cell viability and proliferation assays. MB cells transfected with miR-584-5p mimic or target siRNAs were seeded in 96-well plates at a density of 5×10^3 for D556Med and DAOY or 10×10^3 for D425Med and D458Med per well for 72 hours. Cell viability was assessed using CellTiter-Glo (Promega) or alamarBlue (Thermofisher), and proliferation was assessed using CyQuant Direct Cell Proliferation Assay (Thermofisher).
Next, the in vitro results were validated by determining the function of miR-584-5p in MB and by using an in vivo tumor xenograft model to test the efficacy of miR-584-5p-VCR combination therapy. […] In FIG. 3A, cell proliferation was measured by CyQuant Cell Proliferation Assay. The p-values were determined using standard Student t-tests. […] In FIG. 3B, cell proliferation was measured using an IncuCyte phase-only processing module. […] The p-value was calculated using a standard Student t-test. […] The p-value was calculated using a standard Student t-test. […] In FIG. 4F, The p-value was calculated using a standard Student t-test. […] Cell proliferation was measured using an IncuCyte phase-only processing module. ****, p<0.0001. […]
To determine whether miR-584-5p imparts its tumor-suppressing and VCR-sensitizing effect by downregulating HDAC1/eIF4E3 levels in MB, the function of eIF4E3 and HDAC1 in MB was investigated. […] The p-values in FIGS. 6C and D were calculated using a standard Student t-test. […]

Turning to “miR-584-5p: microRNA mimic; nucleotide sequence UUAUGGUUUGCCUGGGACUGAG (SEQ ID NO: 1); purchased from Thermofisher (chemistry not given here)”, in the data set on 3′-UTR of eIF4E3, the “luciferase activity, eIF4E3 3′-UTR with mutated miR-584-5p binding sites” value was “no change in luciferase activity” and the “luciferase activity, wild-type eIF4E3 3′-UTR construct” value is listed as “significantly reduced”. In the data set on MB cells (D556Med cells cotransfected with eIF4E3/HDAC1 expression vector and miR-584-5p mimic), the “long-term viability and migration elicited by HDAC1/eIF4E3 overexpression” value is “rescued the increased long-term viability and migration”. Besides, the “short-term and long-term viability as well as migration of MB cells” value with MB cells (vs miR-NC) is “reduced”.

The values above are taken from US20210071180A1, “MICRORNA 584-5P COMPOSITIONS AND METHODS FOR TREATING CANCER” (BOARD OF REGENTS, THE UNIVERSY OF TEXAS SYSTEM, priority 2018, published 2021).
